ChEMBL document CHEMBL4390686, “Design, Synthesis, and Pharmacokinetic Evaluation of Phosphate and Amino Acid Ester Prodrugs for Improving the Oral Bioavailability of the HIV-1 Protease Inhibitor Atazanavir” (J Med Chem, 2019)
Values after ≈ are worked out from the molar mass of the structure shown.

Assays:
[1] = physchem; conditions: 30% CH3CN/phosphate buffer, pH 7.4
Description: Half life in pH 7.4 30%CH3CN/phosphate buffer at 50 mM by RP-UPLC analysis

[2] = physchem; conditions: 30% CH3CN/acetate buffer, pH 4
Description: Half life in pH 4 30%CH3CN/acetate buffer at 50 mM by RP-UPLC analysis

[3] = physchem; conditions: acetate buffer, pH 4
Description: Aqueous solubility of the compound in pH 4 acetate buffer by RP-UPLC analysis

[4] = physchem; conditions: 30% CH3CN/HCl buffer, pH 1
Description: Half life in pH 1 30%CH3CN/HCl buffer at 50 mM by RP-UPLC analysis

[5] = physchem; conditions: phosphate buffer, pH 7.4
Description: Aqueous solubility of the compound in pH 7.4 phosphate buffer by RP-UPLC analysis

[6] = physchem; conditions: HCl buffer, pH 1
Description: Aqueous solubility of the compound in pH 1 HCl buffer by RP-UPLC analysis

[7] = rat, in vivo, po, 3 mg/kg
Description: AUClast in cannulated Sprague-Dawley rat assessed as atazanavir level at 3 mg/kg equiv of atazanavir administered orally by UPLC/MS/MS analysis

[8] = physchem; conditions: phosphate buffer, pH 6.5
Description: Aqueous solubility of the compound in pH 6.5 phosphate buffer by RP-UPLC analysis

[9] = physchem; conditions: 30% CH3CN/phosphate buffer, pH 6.5
Description: Half life in pH 6.5 30%CH3CN/phosphate buffer at 50 mM by RP-UPLC analysis

[10] = rat, in vivo, po, 3 mg/kg; remark: listed apart in the source
[11] = rat, in vivo, po, 3 mg/kg; remark: listed apart in the source
[12] = Ratio of test compound to atazanavir aqueous solubility in pH 6.5 phosphate buffer by RP-UPLC analysis; assay type: physicochemical
[13] = target: Protease (Human immunodeficiency virus 1, UniProt Q9YQ12)
Protease, sequence (Q9YQ12 whole entry): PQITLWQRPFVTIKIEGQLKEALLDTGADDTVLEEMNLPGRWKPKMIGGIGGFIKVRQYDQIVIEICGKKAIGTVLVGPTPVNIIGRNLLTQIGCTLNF
Description: Inhibition of HIV1 protease activity

[14] = system: Human immunodeficiency virus 1
Description: Antiviral activity against HIV1 NL4-3 infected in human MT2 cells assessed as reduction in viral yield measured after 4 days by EnduRen live cell substrate based luciferase reporter gene assay

[15] = in vitro; conditions: human, Caco-2
Description: Efflux ratio of apparent permeability across basolateral to apical side over apical to basolateral side in human Caco2 cells

[16] = in vitro; conditions: human, Caco-2; remark: listed apart in the source
Description: Apparent permeability across apical to basolateral side in human Caco2 cells at 2 uM

[17] = in vitro; conditions: human, Caco-2; remark: listed apart in the source
Description: Apparent permeability across basolateral to apical side in human Caco2 cells at 2 uM

[18] = Prodrug conversion in cannulated Sprague-Dawley rat plasma assessed as atazanavir formation at 3 mg/kg equiv of atazanavir administered orally by UPLC/MS/MS analysis; assay type: ADME, organism-based; conditions: in vivo, po
[19] = Prodrug conversion assessed as calf intestinal alkaline phosphatase-mediated compound dephosphorylation by UPLC-MS/MS analysis; assay type: ADME, Bos taurus; conditions: cattle, isolated protein

| half-life at 50000 µM [1] [days] | half-life at 50000 µM [2] [days] | solubility [3] [µg/mL] | half-life at 50000 µM [4] [days] | solubility [5] [µg/mL] | solubility [6] [µg/mL] | AUClast [7] [µM·h] | solubility [8] [µg/mL] | half-life at 50000 µM [9] [days] | Tmax [10] [days] | Cmax [11] [nM] | Ratio [12] | IC50 [13] [nM] | EC50 [14] [nM] | efflux ratio [15] | Papp A→B at 2 µM [16] [×10⁻⁶ cm/s] | Papp B→A at 2 µM [17] [×10⁻⁶ cm/s] | Drug metabolism [18] | Drug metabolism [19] | Compound |
| --- | --- | --- | --- | --- | --- | --- | --- | --- | --- | --- | --- | --- | --- | --- | --- | --- | --- | --- | --- |
| 4.05 | > 20.8 | > 890 | > 20.8 | 45 (≈ 53.8 µM) | > 990 |  |  |  |  |  |  |  |  |  |  |  |  |  | COC(=O)N[C@H](C(=O)N[C@@H](Cc1ccccc1)[C@H](CN(Cc1ccc(-c2ccccn2)cc1)NC(=O)[C@@H](NC(=O)OC)C(C)(C)C)OC(=O)[C@H](N)CCSC)C(C)(C)C |
|  | > 20.8 | > 2000 | > 20.8 |  | > 2000 |  | 620 (≈ 686 µM) | > 20.8 |  |  |  | 4 to 1140 | 0.9 to 1250 |  |  |  |  |  | COC(=O)N[C@H](C(=O)N[C@@H](Cc1ccccc1)[C@H](CN(Cc1ccc(-c2ccccn2)cc1)NC(=O)[C@@H](NC(=O)OC)C(C)(C)C)OC(=O)[C@@H](NC(=O)[C@H](N)C(C)C)C(C)C)C(C)(C)C |
| 4.33 | > 20.8 | > 1530 | > 20.8 | 44 (≈ 52.6 µM) | > 1630 | 0.053 |  |  | 0.0346 | 37 |  |  |  |  |  |  |  |  | COC(=O)N[C@H](C(=O)N[C@@H](Cc1ccccc1)[C@H](CN(Cc1ccc(-c2ccccn2)cc1)NC(=O)[C@@H](NC(=O)OC)C(C)(C)C)OC(=O)[C@@H](N)CCSC)C(C)(C)C |
|  | > 20.8 | > 1100 | > 20.8 |  | > 1300 | 0.094 | 750 (≈ 967 µM) | 1.57 | 0.12 | 39 |  | 4 to 1140 | 0.9 to 1250 |  |  |  |  |  | COC(=O)N[C@H](C(=O)N[C@@H](Cc1ccccc1)[C@H](CN(Cc1ccc(-c2ccccn2)cc1)NC(=O)[C@@H](NC(=O)OC)C(C)(C)C)OC(=O)[C@H](C)N)C(C)(C)C |
|  | > 20.8 | > 1700 | > 20.8 |  | > 1300 | 0.008 | 520 (≈ 670 µM) | 1.57 | 0.179 | 3 |  | 4 to 1140 | 0.9 to 1250 |  |  |  |  |  | COC(=O)N[C@H](C(=O)N[C@@H](Cc1ccccc1)[C@H](CN(Cc1ccc(-c2ccccn2)cc1)NC(=O)[C@@H](NC(=O)OC)C(C)(C)C)OC(=O)[C@@H](C)N)C(C)(C)C |
|  | > 20.8 | > 1420 | > 20.8 |  | > 1710 |  | 930 (≈ 1030 µM) | > 20.8 |  |  |  | 4 to 1140 | 0.9 to 1250 |  |  |  |  |  | COC(=O)N[C@H](C(=O)N[C@@H](Cc1ccccc1)[C@H](CN(Cc1ccc(-c2ccccn2)cc1)NC(=O)[C@@H](NC(=O)OC)C(C)(C)C)OC(=O)[C@H](NC(=O)[C@@H](N)C(C)C)C(C)C)C(C)(C)C |

Second part, the molecule before the results:

| Compound | half-life at 50000 µM [1] [days] | half-life at 50000 µM [2] [days] | solubility [3] [µg/mL] | half-life at 50000 µM [4] [days] | solubility [5] [µg/mL] | solubility [6] [µg/mL] | AUClast [7] [µM·h] | solubility [8] [µg/mL] | half-life at 50000 µM [9] [days] | Tmax [10] [days] | Cmax [11] [nM] | Ratio [12] | IC50 [13] [nM] | EC50 [14] [nM] | efflux ratio [15] | Papp A→B at 2 µM [16] [×10⁻⁶ cm/s] | Papp B→A at 2 µM [17] [×10⁻⁶ cm/s] | Drug metabolism [18] | Drug metabolism [19] |
| --- | --- | --- | --- | --- | --- | --- | --- | --- | --- | --- | --- | --- | --- | --- | --- | --- | --- | --- | --- |
| COC(=O)N[C@H](C(=O)N[C@@H](Cc1ccccc1)[C@H](CN(Cc1ccc(-c2ccccn2)cc1)NC(=O)[C@@H](NC(=O)OC)C(C)(C)C)OC(=O)CNC(=O)[C@@H](N)Cc1ccccc1)C(C)(C)C |  | > 20.8 | > 3500 | > 20.8 |  | > 2900 | 0.016 | > 640 | 3.06 | 0.017 | 9 | > 200 |  |  |  |  |  |  |  |
| COC(=O)N[C@H](C(=O)N[C@@H](Cc1ccccc1)[C@H](CN(Cc1ccc(-c2ccccn2)cc1)NC(=O)[C@@H](NC(=O)OC)C(C)(C)C)OC(=O)CN)C(C)(C)C | 1.63 | > 20.8 | > 1600 | > 20.8 | 960 (≈ 1260 µM) | > 1200 | 0.224 |  |  | 0.38 | 162 |  | 4 to 1140 | 0.9 to 1250 |  |  |  |  |  |
| COC(=O)N[C@H](C(=O)N[C@@H](Cc1ccccc1)[C@H](CN(Cc1ccc(-c2ccccn2)cc1)NC(=O)[C@@H](NC(=O)OC)C(C)(C)C)OC(=O)CN(C)C)C(C)(C)C | 7.83 | > 20.8 | > 1700 | > 20.8 | 360 (≈ 456 µM) | > 1400 | 0.0457 |  |  | 0.012 | 66.8 |  | 4 to 1140 | 0.9 to 1250 | > 8.8 | < 1.5 | 13.2 |  |  |
| COC(=O)N[C@H](C(=O)N[C@@H](Cc1ccccc1)[C@H](CN(Cc1ccc(-c2ccccn2)cc1)NC(=O)[C@@H](NC(=O)OC)C(C)(C)C)OC(=O)CNCc1ccccc1)C(C)(C)C |  | > 20.8 | > 710 | > 20.8 |  | > 990 | 0.1 | < 1 | 13.9 | 0.025 | 55 |  |  |  | > 6.4 | < 1.5 | 9.6 |  |  |
| COC(=O)N[C@H](C(=O)N[C@@H](Cc1ccccc1)[C@H](CN(Cc1ccc(-c2ccccn2)cc1)NC(=O)[C@@H](NC(=O)OC)C(C)(C)C)OC(=O)CNC(=O)[C@H](N)Cc1ccccc1)C(C)(C)C |  | > 20.8 | > 2300 | > 20.8 |  | > 2100 | 0.307 | 230 (≈ 253 µM) | 3.69 | 0.021 | 51 | > 200 |  |  |  |  |  |  |  |
| COC(=O)N[C@H](C(=O)N[C@@H](Cc1ccccc1)[C@H](CN(Cc1ccc(-c2ccccn2)cc1)NC(=O)[C@@H](NC(=O)OC)C(C)(C)C)OC(=O)[C@@H](N)Cc1ccc(O)cc1)C(C)(C)C | 8.95 | 15.7 | > 1420 | > 20.8 | 9 (≈ 10.4 µM) | > 980 | 0.103 |  |  | 0.017 | 99 |  |  |  | > 4.7 | < 1.5 | 7.1 |  |  |
| COC(=O)N[C@H](C(=O)N[C@@H](Cc1ccccc1)[C@H](CN(Cc1ccc(-c2ccccn2)cc1)NC(=O)[C@@H](NC(=O)OC)C(C)(C)C)OC(=O)[C@@H](N)Cc1ccc(F)cc1)C(C)(C)C | 13.9 | > 20.8 | > 980 | > 20.8 | < 1 | > 1380 | 0.463 |  |  | 0.021 | 305 |  |  |  | > 5.5 | < 1.5 | 8.2 |  |  |
| CNCC(=O)O[C@@H](CN(Cc1ccc(-c2ccccn2)cc1)NC(=O)[C@@H](NC(=O)OC)C(C)(C)C)[C@H](Cc1ccccc1)NC(=O)[C@@H](NC(=O)OC)C(C)(C)C |  | > 13.9 | > 2400 | > 20.8 |  | > 2200 | 0.0296 | 930 (≈ 1200 µM) | 1.04 | 0.021 | 9 |  |  |  |  |  |  |  |  |
| COC(=O)N[C@H](C(=O)N[C@@H](Cc1ccccc1)[C@H](CN(Cc1ccc(-c2ccccn2)cc1)NC(=O)[C@@H](NC(=O)OC)C(C)(C)C)OC(=O)CN(C)C(=O)[C@H](Cc1ccccc1)N(C)C)C(C)(C)C |  | > 20.8 | > 2200 | 15.7 |  | > 1200 | 0.359 | 20 (≈ 21 µM) | > 13.9 | 0.021 | 285 |  |  |  |  |  |  |  |  |
| COC(=O)N[C@H](C(=O)N[C@@H](Cc1ccccc1)[C@H](CN(Cc1ccc(-c2ccccn2)cc1)NC(=O)[C@@H](NC(=O)OC)C(C)(C)C)OC(=O)[C@@H](N)Cc1c[nH]c2ccccc12)C(C)(C)C | 6.97 | 15.7 | > 910 | 15.7 | 1 (≈ 1.12 µM) | > 1040 | 0.19 |  |  | 0.033 | 90 |  |  |  |  |  |  |  |  |
| Cc1cccc(C)c1OCC(=O)N[C@@H](Cc1ccccc1)[C@H](C[C@H](Cc1ccccc1)NC(=O)[C@H](C(C)C)N1CCCNC1=O)OP(=O)(O)O |  |  |  |  |  |  |  |  |  |  |  |  |  |  |  |  |  | Metabolite_Notdetected | Metabolite_Notdetected |
| COC(=O)N[C@H](C(=O)N[C@@H](Cc1ccccc1)[C@H](CN(Cc1ccc(-c2ccccn2)cc1)NC(=O)[C@@H](NC(=O)OC)C(C)(C)C)OC(=O)[C@H](N)Cc1ccccc1)C(C)(C)C |  | > 20.8 | > 1200 | > 20.8 |  | > 1200 | 0.154 | < 1 | > 20.8 | 0.021 | 64 |  | 4 to 1140 | 0.9 to 1250 |  |  |  |  |  |
| CN[C@@H](Cc1ccccc1)C(=O)N(C)CC(=O)O[C@@H](CN(Cc1ccc(-c2ccccn2)cc1)NC(=O)[C@@H](NC(=O)OC)C(C)(C)C)[C@H](Cc1ccccc1)NC(=O)[C@@H](NC(=O)OC)C(C)(C)C |  | 0.65 |  | 15.7 |  | > 2700 | 0.092 |  | 0.00333 | 0.012 | 160 |  |  |  |  |  |  |  |  |
| CC(C)CN(C[C@@H](OP(=O)(O)O)[C@H](Cc1ccccc1)NC(=O)O[C@H]1CCOC1)S(=O)(=O)c1ccc(N)cc1 [FOSAMPRENAVIR] |  |  |  |  |  |  |  |  |  |  |  |  |  |  |  |  |  | Metabolite_Notdetected | Metabolite_Notdetected |
